The results in this text go back to patent US20230227449A1, “AMIDOPYRIMIDONE DERIVATIVES” (Hoffmann-La Roche Inc., priority 2020, published 2023).

Structures are written as SMILES. pIC50: −log10 of the molar value.

Chain of Recombinant human Mat2a (P31153 whole entry): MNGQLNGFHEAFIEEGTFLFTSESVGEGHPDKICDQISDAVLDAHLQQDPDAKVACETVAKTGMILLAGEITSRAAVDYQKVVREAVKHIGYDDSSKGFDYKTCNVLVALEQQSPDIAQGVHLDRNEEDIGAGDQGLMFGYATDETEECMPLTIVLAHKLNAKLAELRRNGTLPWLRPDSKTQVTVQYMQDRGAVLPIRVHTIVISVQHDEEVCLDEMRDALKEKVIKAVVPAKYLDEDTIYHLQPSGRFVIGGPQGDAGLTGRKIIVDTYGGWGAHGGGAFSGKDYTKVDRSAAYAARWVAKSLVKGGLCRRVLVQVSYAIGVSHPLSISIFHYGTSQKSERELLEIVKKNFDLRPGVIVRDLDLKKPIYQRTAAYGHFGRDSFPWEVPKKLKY

The target of the assay is Recombinant human Mat2a (Homo sapiens, UniProt P31153). The assay can be described thus: Determination of Mat2A activity (384 well absorbance-based assay, Biomol Green). In kind it is biochemical. To be noted: 12.5 nM Mat2A, 100 μM ATP and Methionine, 2% DMSO, 120 minutes at RT, absorbance at 635 nm. In a few lines:
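Recombinant human Mat2A (12.5 nM) was preincubated with compound for 15 min at RT in HEPES pH 7.5 buffer with 2% DMSO. The reaction was started with 100 μM each of ATP and methionine and ran 120 min at RT. Phosphate was detected with Biomol Green by absorbance at 635 nm.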
Consider `COc1ncccc1-n1c(=O)nc(N)c2cc(Cl)c(C3CC3)nc21` [Example 66, 4-amino-6-chloro-7-cyclopropyl-1-(2-methoxypyridin-3-yl)pyrido[2,3-d]pyrimidin-2(1H)-one], for which the pIC50 is 7.89. As for `Nc1nc(=O)n(C2CCOCC2)c2nc(C3CC3)ccc12` [Example 84, 4-amino-7-cyclopropyl-1-(tetrahydro-2H-pyran-4-yl)pyrido[2,3-d]pyrimidin-2(1H)-one], the figure is 6.68; as for `Cc1ccccc1-n1c(=O)nc(O)c2ccc(C3CC3)nc21` [Example 99, 7-cyclopropyl-1-(2-methylphenyl)pyrido[2,3-d]pyrimidine-2,4-dione], 7.19. With `Cc1ncccc1-n1c(=O)nc(N)c2c(F)cc(C(F)(F)F)cc21` [Example 59, 4-amino-5-fluoro-1-(2-methylpyridin-3-yl)-7-(trifluoromethyl)quinazolin-2 (1H)-one], the negative logarithm of the IC50 (pIC50) is 7.85.

Regarding `Cc1c(F)cccc1-n1c(=O)nc(N)c2ccc(OC(F)F)cc21` [Example 122, 4-amino-7-(difluoromethoxy)-1-(3-fluoro-2-methylphenyl)quinazolin-2 (1H)-one], the pIC50 is over 7.89. As for `Cc1ncccc1-n1c(=O)nc(N)c2ccc([C@@H]3C[C@H]3C)nc21` (racemic) [Example 23, 4-amino-7-((1RS,2RS)-2-methylcyclopropyl)-1-(2-methylpyridin-3-yl)pyrido[2,3-d]pyrimidin-2(1H)-one], the figure is 7.74.
